Reference: a compilation of properties of binary mixtures (doi:10.1021/acs.jpcb.7b01654)

Assay: xn = mol fraction of the nth substance listed
Conditions: 100 kPa

CCCCCCCCCCCC[n+]1ccn(C)c1.O=S(=O)([N-]S(=O)(=O)C(F)(F)F)C(F)(F)F + CC[n+]1ccn(C)c1.O=S(=O)([N-]S(=O)(=O)C(F)(F)F)C(F)(F)F
viscosity [mPa·s]
Conditions | 293 K | 298 K | 303 K | 308 K | 313 K | 318 K | 323 K | 328 K | 333 K
x1 = 0.01 | 36.2 | 29.4 | 24.3 | 20.5 | 17.6 | 15.26 | 13.19 | 11.69 | 10.4
x1 = 0.04 | 37.9 | 30.8 | 25.5 | 21.5 | 18.4 | 15.96 | 13.82 | – | 10.81
x1 = 0.08 | 41.4 | 33.5 | 27.6 | 23.2 | 19.8 | 17 | – | 12.89 | 11.37
x1 = 0.16 | 47.6 | – | – | 26.1 | 22.1 | 19 | 16 | 14.06 | –
x1 = 0.24 | 57.4 | 45.7 | – | 30.7 | 25.7 | 21.9 | 18.6 | 16.17 | 14.13
x1 = 0.32 | 69.1 | 54.2 | 43.6 | 35.6 | 29.6 | 24.8 | – | 18 | 15.5
x1 = 0.43 | 85.1 | 66 | 52.4 | 42.4 | 34.8 | 28.9 | 23.8 | 20.4 | 17.6
x1 = 0.52 | 94.7 | 73.2 | 57.7 | 46.6 | 38.3 | 31.7 | 26.1 | 22.2 | 19.1
x1 = 0.63 | 116 | 88.7 | 69.3 | 55.3 | 44.8 | 36.9 | 30.3 | 25.5 | 21.7
x1 = 0.74 | 137 | 104 | 80.6 | – | 51.3 | 42 | – | 28.7 | 24.1
x1 = 0.87 | 158 | 119 | 91.7 | 71.9 | 57.4 | 46.5 | 37.4 | 31.1 | 26.1
x1 = 0.92 | 182 | 135 | 102 | 79 | 62.1 | 49.8 | 40.2 | 33 | –
x1 = 0.96 | – | 149 | 114 | – | – | 56.2 | 45.5 | 37.4 | 31.2
x1 = 1 | 193 | 143 | – | 84 | 66.2 | 53 | 42.65 | 34.9 | 28.87
x2 = 0.01 | 199 | 149 | 113 | 88.4 | 70 | 56.3 | – | 37.5 | 31.3

CC[n+]1ccn(C)c1.O=S(=O)([N-]S(=O)(=O)C(F)(F)F)C(F)(F)F + CCCCCCCCCCCC[n+]1ccn(C)c1.O=S(=O)([N-]S(=O)(=O)C(F)(F)F)C(F)(F)F
x2 = 0
Conditions | viscosity [mPa·s]
283 K | 56.8
288 K | 44.6
298 K | 29.7
303 K | 24.8
308 K | 21
318 K | 15.57
323 K | 13.28
